Reference: the NIST ThermoML archive (doi:10.1016/j.jct.2017.08.004)

What was measured:
[1] = for molar entropy: 101.33 kPa
[2] = Molar enthalpy of transition or fusion; details: Crystal; DSC

OC[C@@H](O)[C@@H](O)CO [meso-1,2,3,4-butanetetrol]
[1]
Details	molar entropy [J/K/mol]
1 K, Crystal, relaxation calorimetry	0.0005942
2 K, Crystal, relaxation calorimetry	0.002515
3 K, Crystal, relaxation calorimetry	0.007205
4 K, Crystal, relaxation calorimetry	0.01633
5 K, Crystal, relaxation calorimetry	0.03184
6 K, Crystal, relaxation calorimetry	0.05604
7 K, Crystal, relaxation calorimetry	0.09153
8 K, Crystal, relaxation calorimetry	0.1411
9 K, Crystal, relaxation calorimetry	0.2079
10 K, Crystal, relaxation calorimetry	0.2944
15 K, Crystal, relaxation calorimetry	1.077
20 K, Crystal, relaxation calorimetry	2.466
25 K, Crystal, relaxation calorimetry	4.373
30 K, Crystal, relaxation calorimetry	6.67
35 K, Crystal, relaxation calorimetry	9.244
40 K, Crystal, relaxation calorimetry	12.02
45 K, Crystal, relaxation calorimetry	14.94
50 K, Crystal, relaxation calorimetry	17.96
55 K, Crystal, relaxation calorimetry	21.05
60 K, Crystal, relaxation calorimetry	24.19
65 K, Crystal, relaxation calorimetry	27.37
70 K, Crystal, relaxation calorimetry	30.57
75 K, Crystal, relaxation calorimetry	33.79
80 K, Crystal, relaxation calorimetry	37.01
85 K, Crystal, relaxation calorimetry	40.23
90 K, Crystal, relaxation calorimetry	43.44
95 K, Crystal, relaxation calorimetry	46.65
100 K, Crystal, relaxation calorimetry	49.83
110 K, Crystal, relaxation calorimetry	56.17
120 K, Crystal, relaxation calorimetry	62.43
130 K, Crystal, relaxation calorimetry	68.62
140 K, Crystal, relaxation calorimetry	74.74
150 K, Crystal, relaxation calorimetry	80.8
160 K, Crystal, relaxation calorimetry	86.79
170 K, Crystal, relaxation calorimetry	92.72
180 K, Crystal, relaxation calorimetry	98.61
190 K, Crystal, relaxation calorimetry	104.44
200 K, Crystal, relaxation calorimetry	110.22
210 K, Crystal, relaxation calorimetry	115.97
220 K, Crystal, relaxation calorimetry	121.68
230 K, Crystal, relaxation calorimetry	127.36
240 K, Crystal, relaxation calorimetry	133.01
250 K, Crystal, relaxation calorimetry	138.64
260 K, Crystal, relaxation calorimetry	144.24
270 K, Crystal, relaxation calorimetry	149.82
273.15 K, Crystal, relaxation calorimetry	151.57
280 K, Crystal, relaxation calorimetry	155.38
290 K, Crystal, relaxation calorimetry	160.92
298.15 K, Crystal, relaxation calorimetry	165.43
300 K, Crystal, relaxation calorimetry	166.46
305 K, Crystal, Small sample (50 mg) DSC	169.22
310 K, Crystal, Small sample (50 mg) DSC	172
315 K, Crystal, Small sample (50 mg) DSC	174.78
320 K, Crystal, Small sample (50 mg) DSC	177.57
325 K, Crystal, Small sample (50 mg) DSC	180.36
330 K, Crystal, Small sample (50 mg) DSC	183.15
335 K, Crystal, Small sample (50 mg) DSC	185.94
340 K, Crystal, Small sample (50 mg) DSC	188.74
345 K, Crystal, Small sample (50 mg) DSC	191.53
350 K, Crystal, Small sample (50 mg) DSC	194.32
355 K, Crystal, Small sample (50 mg) DSC	197.11
360 K, Crystal, Small sample (50 mg) DSC	199.9
365 K, Crystal, Small sample (50 mg) DSC	202.7
370 K, Crystal, Small sample (50 mg) DSC	205.49
375 K, Crystal, Small sample (50 mg) DSC	208.29
380 K, Crystal, Small sample (50 mg) DSC	211.1
385 K, Crystal, Small sample (50 mg) DSC	213.99
390 K, Crystal, Small sample (50 mg) DSC	217.51
405 K, Liquid, Small sample (50 mg) DSC	333.59
410 K, Liquid, Small sample (50 mg) DSC	338.24
415 K, Liquid, Small sample (50 mg) DSC	342.55
420 K, Liquid, Small sample (50 mg) DSC	346.8
425 K, Liquid, Small sample (50 mg) DSC	351
430 K, Liquid, Small sample (50 mg) DSC	355.15
435 K, Liquid, Small sample (50 mg) DSC	359.26

Details	Normal melting temperature [°C]
[1], Crystal, DTA	121.67

Details	Molar enthalpy of transition or fusion [kcal/mol]
[2]	10.7
